By inhibition is commonly meant the relative decrease from the control value, in per cent.

The target in the first experiment is T1, NO synthase (Rattus norvegicus, UniProt P29476).
T1 construct: the supernatant was then removed by decantation and frozen in portions at −80° C; from tissue; host or cells: rat cerebellum, 20,000 g supernatant of homogenate
Briefly: HTS-NOS assay (NOS assay): conversion of radioactive arginine, cation-exchanger filter plate. In kind it is biochemical. To be noted: 10 μM. The method, boiled down:
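Percent inhibition was derived by comparing remaining radioactive arginine with compound-free controls. Arginine retained on phosphate cation-exchanger filters was counted after citrulline washout, following a 5-60 min room-temperature (25 °C) reaction of labelled arginine, NADPH-containing medium and rat cerebellar homogenate supernatant.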
As for `[C-]#[N+]CCCCCCN(C(C)=O)c1c(-c2cccnc2)nc2cc(C)cc(C)n12` [Example 232, {6-[acetyl-(5,7-dimethyl-2-pyridin-3-yl-imidazo[1,2-a]pyridin-3-yl)-amino]-hexyl}-methylidyne-ammonium], the “HTS-NOS assay: % inhibition (10 μM)” value was 59%.

Still in this experiment, the particulars now being: read-out: HTS-NOS assay: % inhibition (10 μM).
As for `CC(=O)N(c1c(-c2ccc(C(=O)O)o2)nc2cc(C)cc(C)n12)C1CCCCC1` [Example 197, 5-[3-(acetyl-cyclohexyl-amino)-5,7-dimethyl-imidazo[1,2-a]pyridin-2-yl]-furan-2-carboxylic acid], the inhibition at 10 µM came to 70%.
Turning to `CC(=O)N(c1c(-c2ccc([N+](=O)[O-])o2)nc2cc(C)ccn12)C(C)(C)C` [Example 198, N-tert-butyl-N-[7-methyl-2-(5-nitro-furan-2-yl)-imidazo[1,2-a]pyridin-3-yl]-acetamide], the inhibition at 10 µM was 54%.
On to `COc1ccccc1-c1nc2cc(C)ccn2c1N(C(C)=O)C(C)(C)CC(C)(C)C` [Example 199, N-[2-(2-methoxy-phenyl)-7-methyl-imidazo[1,2-a]pyridin-3-yl]-N-(1,1,3,3-tetramethyl-butyl)-acetamide], for which the inhibition at 10 µM came to 57%.
In the case of `CC(=O)N(c1c(-c2ccc(C)o2)nc2ccccn12)C(C)(C)CC(C)(C)C` [Example 200, N-[2-(5-methyl-furan-2-yl)-imidazo[1,2-a]pyridin-3-yl]-N-(1,1,3,3-tetramethylbutyl)-acetamide], the inhibition at 10 µM was determined as 58%.
Still for that read-out and setting: the result for `CC(=O)N(c1c(-c2ccc(C(=O)O)o2)nc2cc(C)ccn12)C(C)(C)C` [Example 201, 5-[3-(acetyl-tert-butyl-amino)-7-methyl-imidazo[1,2-a]pyridin-2-yl]-furan-2-carboxylic acid] reads 54%.
Still for that read-out and setting: the result for `CC(=O)N(c1c(-c2cc(C)c(C)o2)nc2ccccn12)C(C)(C)CC(C)(C)C` [Example 202, N-[2-(4,5-dimethyl-furan-2-yl)-imidazo[1,2-a]pyridin-3-yl]-N-(1,1,3,3-tetramethyl-butyl)-acetamide] reads 57%.
Turning to `CC(=O)N(c1c(-c2ccco2)nc2cc(C)cc(C)n12)C1CCCCC1` [Example 203, N-cyclohexyl-N-(2-furan-2-yl-5,7-dimethyl-imidazo[1,2-a]pyridin-3-yl)-acetamide], the inhibition at 10 µM turned out to be 60%.
For `CC(=O)N(c1c(-c2cccc3ccccc23)nc2cc(C)ccn12)C(C)(C)C` [Example 204, N-tert-butyl-N-(7-methyl-2-naphthalen-1-yl-imidazo[1,2-a]pyridin-3-yl)-acetamide], the inhibition at 10 µM was 54%.
On the same count and under the same terms, the result for `CC(=O)N(c1c(-c2ccc(C(=O)O)s2)nc2cnccn12)C(C)(C)CC(C)(C)C` [Example 205, 5-{3-[acetyl-(1,1,3,3-tetramethyl-butyl)-amino]-imidazo[1,2-a]pyrazin-2-yl}-thiophene-2-carboxylic acid] reads 52%; that for `CCCCN(C(C)=O)c1c(-c2ccccc2C)nc2ncccn12` [Example 206, N-butyl-N-(2-o-tolyl-imidazo[1,2-a]pyrimidin-3-yl)acetamide], 54%.
Still for that read-out and setting: the result for `COc1ccc(-c2nc3cc(C)ccn3c2N(C(C)=O)c2c(C)cccc2C)cc1OC` [Example 207, N-[2-(3,4-dimethoxy-phenyl)-7-methyl-imidazo[1,2-a]pyridin-3-yl]-N-(2,6-dimethyl-phenyl)-acetamide] reads 51%; that for `CC(=O)N(c1c(-c2cc3ccccc3c3ccccc23)nc2cc(C)ccn12)C(C)(C)C` [Example 208, N-tert-butyl-N-(7-methyl-2-phenanthren-9-yl-imidazo[1,2-a]pyridin-3-yl)-acetamide], 63%.
The same measure, in the same setting: the result for `CC(=O)N(c1c(C)cccc1C)c1c(-c2ccccc2F)nc2cc(C)ccn12` [Example 209, N-(2,6-dimethyl-phenyl)-N-[2-(2-fluoro-phenyl)-7-methyl-imidazo[1,2-a]pyridin-3-yl]-acetamide] reads 62%.
As for `COc1ccccc1-c1nc2c(C)cccn2c1N(C(C)=O)C(C)(C)CC(C)(C)C` [Example 210, N-[2-(2-methoxy-phenyl)-8-methyl-imidazo[1,2-a]pyridin-3-yl]-N-(1,1,3,3-tetramethyl-butyl)-acetamide], the inhibition at 10 µM is 53%.
In the case of `CC(=O)N(c1c(C)cccc1C)c1c(-c2cccc(O)c2)nc2cc(C)cc(C)n12` [Example 211, N-(2,6-dimethyl-phenyl)-N-[2-(3-hydroxy-phenyl)-5,7-dimethyl-imidazo[1,2-a]-pyridin-3-yl]-acetamide], the inhibition at 10 µM was 73%.
`CC(=O)N(c1c(C)cccc1C)c1c(C(C)(C)C)nc2cc(C)ccn12` [Example 212, N-(2-tert-butyl-7-methyl-imidazo[1,2-a]pyridin-3-yl)-N-(2,6-dimethyl-phenyl)-acetamide]: the inhibition at 10 µM came out at 68%.
Still for that read-out and setting: the result for `COc1cc(-c2nc3c(C)cc(Br)cn3c2N(C(C)=O)c2c(C)cccc2C)ccc1OC(C)=O` [Example 213, acetic acid 4-{3-[acetyl-(2,6-dimethyl-phenyl)-amino]-6-bromo-8-methyl-imidazo[1,2-a]pyridin-2-yl}-2-methoxy-phenyl ester] reads 69%; that for `CC(=O)N(c1c(-c2ccc(C3OCCO3)o2)nc2cc(C)ccn12)C(C)(C)C` [Example 214, N-tert-butyl-N-[2-(5-[1,3]dioxolan-2-yl-furan-2-yl)-7-methyl-imidazo[1,2-a]-pyridin-3-yl]-acetamide], 56%; that for `CC(=O)N(c1c(-c2cc3ccccc3o2)nc2cc(C)ccn12)C(C)(C)CC(C)(C)C` [Example 216, N-(2-benzofuran-2-yl-7-methyl-imidazo[1,2-a]pyridin-3-yl)-N-(1,1,3,3-tetramethyl-butyl)-acetamide], 50%.
The same measure, in the same setting: the result for `CC(=O)N(c1c(-c2cc3ccccc3o2)nc2cc(C)cc(C)n12)C(C)(C)CC(C)(C)C` [Example 217, N-(2-benzofuran-2-yl-5,7-dimethyl-imidazo[1,2-a]pyridin-3-yl)-N-(1,1,3,3-tetramethyl-butyl)-acetamide] reads 63%; that for `CC(=O)N(c1c(-c2ccc(C(=O)O)s2)nc2ccccn12)C(C)(C)C` [Example 218, 5-[3-(acetyl-tert-butyl-amino)-imidazo[1,2-a]pyridin-2-yl]-thiophene-2-carboxylic acid], 60%.
On to `CC(=O)N(c1c(C2CCCCC2)nc2cc(C)cc(C)n12)C(C)(C)CC(C)(C)C` [Example 219, N-(2-cyclohexyl-5,7-dimethyl-imidazo[1,2-a]pyridin-3-yl)-N-(1,1,3,3-tetramethyl-butyl)-acetamide], for which the inhibition at 10 µM came to 62%.
With `CC(=O)N(c1c(-c2ccc(C)o2)nc2ccccn12)C(C)(C)C` [Example 220, N-tert-butyl-N-[2-(5-methyl-furan-2-yl)-imidazo[1,2-a]pyridin-3-yl]-acetamide], the inhibition at 10 µM stood at 61%.
Still for that read-out and setting: the result for `CSc1ccc(-c2nc3ncccn3c2N(C(C)=O)C(C)(C)C)s1` [Example 221, N-tert-butyl-N-[2-(5-methylsulfanyl-thiophen-2-yl)-imidazo[1,2-a]pyrimidin-3-yl]-acetamide] reads 54%; that for `CC(=O)N(c1c(-c2cc(C)c(C)o2)nc2cccc(C)n12)C(C)(C)CC(C)(C)C` [Example 222, N-[2-(4,5-dimethyl-furan-2-yl)-5-methyl-imidazo[1,2-a]pyridin-3-yl]-N-(1,1,3,3-tetramethyl-butyl)-acetamide], 53%; that for `CCCCN(C(C)=O)c1c(-c2ccc(Cl)cc2Cl)nc2ncccn12` [Example 223, N-butyl-N-[2-(2,4-dichloro-phenyl)-imidazo[1,2-a]pyrimidin-3-yl]-acetamide], 62%.
For `CC(=O)N(c1c(-c2sccc2Br)nc2ccc(C)cn12)C1CCCCC1` [Example 224, N-[2-(3-bromo-thiophen-2-yl)-6-methyl-imidazo[1,2-a]pyridin-3-yl]-N-cyclohexyl-acetamide], the inhibition at 10 µM worked out at 53%.
Consider `CC(=O)N(c1c(C)cccc1C)c1c(-c2ccc(C(=O)O)s2)nc2ccc(C)cn12` [Example 225, 5-{3-[acetyl-(2,6-dimethyl-phenyl)-amino]-6-methyl-imidazo[1,2-a]pyridin-2-yl}-thiophene-2-carboxylic acid], for which the inhibition at 10 µM came out at 55%.
Take `CCCCN(C(C)=O)c1c(-c2cccc(OC)c2OC)nc2cc(C)ccn12` [Example 226, N-butyl-N-[2-(2,3-dimethoxy-phenyl)-7-methyl-imidazo[1,2-a]pyridin-3-yl]-acetamide]: the inhibition at 10 µM is 62%.
Regarding `CC(=O)N(c1c(-c2cccc(Cl)c2Cl)nc2ccccn12)C(C)(C)C` [Example 227, N-tert-butyl-N-[2-(2,3-dichloro-phenyl)-imidazo[1,2-a]pyridin-3-yl]-acetamide], the inhibition at 10 µM stood at 54%.
Take `CCCc1cccc2nc(-c3ccco3)c(N(C(C)=O)C(C)(C)CC(C)(C)C)n12` [Example 228, N-(2-furan-2-yl-5-propyl-imidazo[1,2-a]pyridin-3-yl)-N-(1,1,3,3-tetramethylbutyl)-acetamide]: the inhibition at 10 µM was 53%.
As for `CC(=O)N(c1c(-c2ccc(C(=O)O)s2)nc2ccccn12)C1CCCCC1` [Example 229, 5-[3-(acetyl-cyclohexyl-amino)-imidazo[1,2-a]pyridin-2-yl]-thiophene-2-carboxylic acid], the inhibition at 10 µM was 59%.
`CC(=O)N(c1c(-c2ccc(C(=O)O)o2)nc2c(C)cccn12)C(C)(C)CC(C)(C)C` [Example 230, 5-{3-[acetyl-(1,1,3,3-tetramethyl-butyl)-amino]-8-methyl-imidazo[1,2-a]pyridin-2-yl}-furan-2-carboxylic acid]: the inhibition at 10 µM worked out at 52%.
In the case of `CCCCN(C(C)=O)c1c(-c2ccccn2)nc2c(C(=O)O)cccn12` [Example 231, 3-(acetyl-butyl-amino)-2-pyridin-2-yl-imidazo[1,2-a]pyridine-8-carboxylic acid], the inhibition at 10 µM came out at 52%.

For the origin of these results see patent US20040023972A1, “Use of substituted imidazo[1,2-a]-pyridin-, -pyrimidin-and-pyrazin-3-yl-amine derivatives in the preparation of medicaments for inhibiting NOS” (Gruenenthal GmbH, priority 2000, published 2004).
